Test results reported in US11377425B1, “Small molecule modulators of IL-17” (LEO Pharma A/S, priority 2018, dated 2022).

Target: T1, human IL-17AA (Homo sapiens, UniProt Q16552)
T1 construct: host or cells: HEK (human embryonic kidney) cells
T1 sequence (Q16552 24-155): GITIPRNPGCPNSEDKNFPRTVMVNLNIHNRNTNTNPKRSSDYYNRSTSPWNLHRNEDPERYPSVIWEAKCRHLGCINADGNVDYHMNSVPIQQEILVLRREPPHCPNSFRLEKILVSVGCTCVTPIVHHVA
Test: IL-8 release assay in human epithelial keratinocytes adult (HEKa)
Type: cell-based
Details: HEKa cells, 3 ng/mL HEK-human IL-17AA + 10 ng/mL human TNFalpha; read-out: Rel EC50 IL-8 release assay
In short: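 Adult human epidermal keratinocytes stimulated 68-72 h at 37 °C with 3 ng/mL HEK-derived human IL-17AA plus 10 ng/mL TNF-alpha (final) in the presence of compound; TNF-alpha alone defines 100% inhibition. Secreted IL-8 measured by HTRF as percent of controls; relative IC50/Emax from four-parameter fit (r^2>0.9), cytotoxicity by PrestoBlue.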

SMILES	EC50 [µM]
Cc1n[nH]c(C)c1-c1ccc(NC(=O)C(NC(=O)c2ccnn2C)C(c2ccccc2)C2CC2)cc1 (single isomer, unassigned) [Example 301, N-[1-[cyclopropyl(phenyl)methyl]-2-[4-(3,5-dimethyl-1H-pyrazol-4-yl)anilino]-2-oxo-ethyl]-2-methyl-pyrazole-3-carboxamide]	0.1 to 1
Cc1n[nH]c(C)c1-c1ccc(NC(=O)[C@@H](NC(=O)c2ccnn2C)[C@H]2CCCC(F)(F)C2)cc1 [Example 19, N-[(1S)-1-[(1S)-3,3-difluorocyclohexyl]-2-[4-(3,5-dimethyl-1H-pyrazol-4-yl)anilino]-2-oxo-ethyl]-2-methyl-pyrazole-3-carboxamide]	0.1 to 1
Cc1n[nH]c(C)c1-c1ccc(NC(=O)[C@@H](NC(=O)c2ccnn2C)C2CCCC(C)(C)C2)cc1 (single isomer, unassigned) [Example 239]	< 0.1
Cc1n[nH]c(C)c1-c1ccc(NC(=O)C(NC(=O)c2ccnn2C)[C@H]2CCCc3c(F)cc(F)cc32)cc1 (single isomer, unassigned) [Example 255]	< 0.1
Cc1ncn(C)c1-c1ccc(NC(=O)[C@@H](NC(=O)c2ccnn2C)C(c2ccccc2)c2ccccc2)cc1 [Example 338, N-[(1S)-1-benzhydryl-2-[4-(3,5-dimethylimidazol-4-yl)anilino]-2-oxo-ethyl]-2-methyl-pyrazole-3-carboxamide]	0.1 to 1
Cn1cncc1-c1ccc(NC(=O)C(NC(=O)c2ccnn2C)C(c2cccc(Cl)c2)c2cccc(Cl)c2)cc1 (single isomer, unassigned) [Example 373A, N-(1,1-Bis(3-chlorophenyl)-3-((4-(1-methyl-1H-imidazol-5-yl)phenyl)amino)-3-oxopropan-2-yl)-1-methyl-1H-pyrazole-5-carboxamide]	0.1 to 1
Cc1ncn(C)c1-c1ccc(NC(=O)[C@@H](NC(=O)c2ccnn2C)C2CCCC2)cc1 [Example 335, N-[(1S)-1-cyclopentyl-2-[4-(3,5-dimethylimidazol-4-yl)anilino]-2-oxo-ethyl]-2-methyl-pyrazole-3-carboxamide]	> 1
Cc1n[nH]c(C)c1-c1ccc(NC(=O)[C@@H](NC(=O)C2CCC2)C(C2CC2)C2CC2)cc1 [Example 169, N-[(1S)-1-(dicyclopropylmethyl)-2-[4-(3,5-dimethyl-1H-pyrazol-4-yl)anilino]-2-oxo-ethyl]cyclobutane carboxamide]	> 1
Cc1n[nH]c(C)c1-c1ccc(NC(=O)[C@@H](NC(=O)c2ccnn2C(C)C)[C@H]2CCCC(F)(F)C2)cc1 [Example 23, N-[(1S)-1-[(1S)-3,3-difluorocyclohexyl]-2-[4-(3,5-dimethyl-1H-pyrazol-4-yl)anilino]-2-oxo-ethyl]-2-isopropyl-pyrazole-3-carboxamide]	< 0.1
Cc1n[nH]c(C)c1-c1ccc(NC(=O)[C@@H](NC(=O)c2ccnn2CC(F)F)C2CCCCC2)cc1 [Example 106, N-[(1S)-1-cyclohexyl-2-[4-(3,5-dimethyl-1H-pyrazol-4-yl)anilino]-2-oxo-ethyl]-2-(2,2-difluoroethyl)pyrazole-3-carboxamide]	< 0.1
Cc1n[nH]c(C)c1-c1ccc(NC(=O)[C@@H](NC(=O)c2ccnn2[C@H](C)CO)C(C)C2CCC2)cc1 (single isomer, unassigned) [Example 165]	0.1 to 1
Cc1n[nH]c(C)c1-c1ccc(NC(=O)[C@@H](NC(=O)c2ccnn2C(C)CCO)C(C2CC2)C2CC2)cc1 (single isomer, unassigned) [Example 226]	< 0.1
Cc1n[nH]c(C)c1-c1ccc(NC(=O)[C@@H](NC(=O)c2ccnn2C)C(C)CC2CC2)cc1 (single isomer, unassigned) [Example 159]	0.1 to 1
Cc1n[nH]c(C)c1-c1ccc(NC(=O)[C@@H](NC(=O)c2ccnn2C)[C@@H]2CCCc3c(F)cc(Br)cc32)cc1 [Example 262]	0.1 to 1
Cc1n[nH]c(C)c1-c1ccc(NC(=O)[C@@H](NC(=O)c2ccnn2CC(C)(F)F)C(C2CC2)C2CC2)cc1 [Example 186, N-[(1S)-1-(dicyclopropylmethyl)-2-[4-(3,5-dimethyl-1H-pyrazol-4-yl)anilino]-2-oxo-ethyl]-2-(2,2-difluoropropyl)pyrazole-3-carboxamide]	< 0.1
Cc1n[nH]c(C)c1-c1ccc(NC(=O)C(NC(=O)c2ccnn2CCC(C)O)C2CCCCCCC2)cc1 (single isomer, unassigned) [Example 142, N-[1-cyclooctyl-2-[4-(3,5 dimethyl-1H-pyrazol-4-yl)anilino]-2-oxo-ethyl]-2-(3-hydroxybutyl)pyrazole-3-carboxamide]	0.1 to 1
Cc1n[nH]c(C)c1-c1ccc(NC(=O)[C@@H](NC(=O)c2cnc3ncccn23)C2CCCCC2)cc1 [Example 72, N-[(1S)-1-cyclohexyl-2-[4-(3,5-dimethyl-1H-pyrazol-4-yl)anilino]-2-oxo-ethyl]imidazo[1,2-a]pyrimidine-3-carboxamide]	> 1

SMILES	EC50 [µM]
Cc1n[nH]c(C)c1-c1ccc(NC(=O)[C@@H](NC(=O)c2ccnn2C)C(C)C2CCC2)cc1 (single isomer, unassigned) [Example 194]	< 0.1
Cc1n[nH]c(C(C)O)c1-c1ccc(NC(=O)[C@@H](NC(=O)C2(F)CC2)C2CCCCC2)cc1 (stereo partly drawn) [Example 441, N-[(1S)-1-cyclohexyl-2-[4-[5-(1-hydroxyethyl)-3-methyl-1H-pyrazol-4-yl]anilino]-2-oxo-ethyl]-1-fluoro-cyclopropanecarboxamide]	> 1
Cc1n[nH]c(C)c1-c1ccc(NC(=O)[C@@H](NC(=O)c2ccnn2C)[C@H]2CCCc3ccc(C#N)cc32)cc1 [Example 82, N-[(1S)-1-[(1S)-7-cyanotetralin-1-yl]-2-[4-(3,5-dimethyl-1H-pyrazol-4-yl)anilino]-2-oxo-ethyl]-2-methyl-pyrazole-3-carboxamide]	0.1 to 1
CC[C@@H](C)[C@H](NC(=O)c1ccnn1C)C(=O)Nc1ccc(-c2c(C)n[nH]c2C)cc1 [Example 113]	> 1
Cc1n[nH]c(C)c1-c1ccc(NC(=O)[C@@H](NC(=O)c2ccnn2C)C2[C@H]3CCCC[C@@H]23)cc1 (stereo partly drawn) [Example 246, N-[(1S)-2-[4-(3,5-dimethyl-1H-pyrazol-4-yl)anilino]-1-[(1S,6R)-norcaran-7-yl]-2-oxo-ethyl]-2-methyl-pyrazole-3-carboxamide]	0.1 to 1
Cc1n[nH]c(C)c1-c1ccc(NC(=O)[C@@H](NC(=O)c2ccnn2CC(C)C)C(C2CC2)C2CC2)cc1 [Example 132, N-[(1S)-1-(dicyclopropylmethyl)-2-[4-(3,5-dimethyl-1H-pyrazol-4-yl)anilino]-2-oxo-ethyl]-2-isobutyl-pyrazole-3-carboxamide]	< 0.1
Cc1n[nH]c(C)c1-c1ccc(NC(=O)[C@@H](NC(=O)c2ccnn2C(C)C)C(C2CCC2)C2CCC2)cc1 [Example 39]	< 0.1
Cn1cncc1-c1ccc(NC(=O)[C@H](Cc2cc(C#N)ccc2Cl)NC(=O)c2ccnn2C)cc1 [Example 342, N-[(1S)-1-[(2-chloro-5-cyano-phenyl)methyl]-2-[4-(3-methylimidazol-4-yl)anilino]-2-oxo-ethyl]-2-methyl-pyrazole-3-carboxamide]	> 1
Cc1n[nH]c(C)c1-c1ccc(NC(=O)[C@@H](NC(=O)c2ccnn2CC(F)(F)F)C(C2CC2)C2CC2)cc1 [Example 184, N-[(1S)-1-(dicyclopropylmethyl)-2-[4-(3,5-dimethyl-1H-pyrazol-4-yl)anilino]-2-oxo-ethyl]-2-(2,2,2-trifluoroethyl)pyrazole-3-carboxamide]	< 0.1
Cc1n[nH]c(C)c1-c1ccc(NC(=O)C(NC(=O)c2ccnn2C)C(C)c2ccccc2)cc1 (single isomer, unassigned) [Example 235]	> 1
Cc1n[nH]c(C)c1-c1ccc(NC(=O)[C@@H](NC(=O)c2ccnn2C)C2CC2(C)C)cc1 (single isomer, unassigned) [Example 224]	> 1
Cc1n[nH]c(C)c1-c1ccc(NC(=O)C(NC(=O)c2ccnn2C)C(c2ccccc2)C2CC2)cc1 (single isomer, unassigned) [Example 302, N-[1-[cyclopropyl(phenyl)methyl]-2-[4-(3,5-dimethyl-1H-pyrazol-4-yl)anilino]-2-oxo-ethyl]-2-methyl-pyrazole-3-carboxamide]	> 1
Cc1n[nH]c(C)c1-c1ccc(NC(=O)[C@@H](NC(=O)c2conc2-c2ccc(Cl)cc2)C2CCCCC2)cc1 [Example 69, 3-(4-chlorophenyl)-N-[(1S)-1-cyclohexyl-2-[4-(3,5-dimethyl-1H-pyrazol-4-yl)anilino]-2-oxo-ethyl]isoxazole-4-carboxamide]	> 1
Cc1n[nH]c(C)c1-c1ccc(NC(=O)[C@@H](NC(=O)c2ccnn2C(C)C)[C@@H]2CC(C)(C)CCC2(F)F)cc1 [Example 212, N-[(1S)-1-[(1S)-2,2-difluoro-5,5-dimethyl-cyclohexyl]-2-[4-(3,5-dimethyl-1H-pyrazol-4-yl)anilino]-2-oxo-ethyl]-2-isopropyl-pyrazole-3-carboxamide]	< 0.1
Cc1n[nH]c(C)c1-c1ccc(NC(=O)[C@@H](NC(=O)c2ccnn2C)C2CCCCC2)cc1 [Example 1, N-[(1S)-1-cyclohexyl-2-[4-(3,5-dimethyl-1H-pyrazol-4-yl)anilino]-2-oxo-ethyl]-2-methyl-pyrazole-3-carboxamide]	0.1 to 1
Cc1n[nH]c(N(C)C)c1-c1ccc(NC(=O)[C@@H](NC(=O)c2ccnn2C)C2CCCCC2)cc1 [Example 453, N-[(1S)-1-cyclohexyl-2-[4-[3-(dimethylamino)-5-methyl-1H-pyrazol-4-yl]anilino]-2-oxo-ethyl]-2-methyl-pyrazole-3-carboxamide]	0.1 to 1
